The values that follow come from ChEMBL document CHEMBL1201862, “PubChem BioAssay data set” (2004).

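Growth conditions: 96-well plates. Treatment: test compound, 48 hours, 5 concentrations. Analysis: linear interpolation between bracketing concentrations; unreached endpoints set to highest concentration. GI50 marks 50% less growth.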 Activity calls are given as the source filed them. Rule as the data show it: active = GI50 up to about 1.1 µM and inactive = higher. Where only a bound is given, the exact number is not on record here.

Test systems include SW-620; SF-268; SK-MEL-5; DMS-273; Malme-3M; UACC-257; NCI-H23; OVCAR-5; LOX IMVI; HCC 2998; HL-60; HOP-92; U-251; NCI-H226; LXFL 529; M14; OVCAR-4; HCT-116; SNB-19.
What all share (experiment): NCI-60 cell line screen, 48 h

`COc1ccc(/C=C/C(=O)c2sc(-c3cccnc3)nc2C)cc1`: the GI50 with SW-620 is 32.8 µM (inactive); with SF-268 it was 74.6 µM (inactive); in the experiment with SK-MEL-5, 30.3 µM (inactive); in the experiment with DMS-273, 40.9 µM (inactive); in the experiment on Malme-3M it was 62.8 µM (inactive); in the experiment with UACC-257, > 100 µM (inactive). Also, the GI50 with NCI-H23 was 75.5 µM (inactive); with OVCAR-5, > 100 µM (inactive); in the experiment on LOX IMVI, 25.1 µM (inactive); in the experiment on HCC 2998, 37.5 µM (inactive); in the experiment with HL-60, 20.4 µM (inactive); in the experiment with HOP-92, 81.5 µM (inactive). For the same compound, the GI50 in the experiment with U-251 is 58.3 µM (inactive); in the experiment with NCI-H226, 23.8 µM (inactive).
Regarding `Cc1cc2nc(O)c(CCC(=O)O)nc2cc1C`, the GI50 in the experiment with SF-268, in the experiment with LXFL 529, in the experiment on M14, in the experiment with SK-MEL-5, with Malme-3M and in the experiment with UACC-257 was > 100 µM (inactive) in each case. Further, the GI50 with NCI-H23, with OVCAR-5, with LOX IMVI, in the experiment on OVCAR-4, in the experiment with HCC 2998 and in the experiment on HCT-116 was > 100 µM (inactive) in each case. In addition, the GI50 in the experiment with HL-60, with HOP-92, in the experiment with SNB-19, in the experiment with U-251 and in the experiment with NCI-H226 was > 100 µM (inactive) in each case.
Regarding `O=C(NCO)NCOCn1c(=O)n(CO)c(=O)n(CO)c1=O`, the GI50 is 21.3 µM (inactive) in the experiment on SW-620; 31.3 µM (inactive) in the experiment on SF-268; 20 µM (inactive) in the experiment on LXFL 529; 17.1 µM (inactive) in the experiment with M14; 41.5 µM (inactive) in the experiment with SK-MEL-5; 31.5 µM (inactive) in the experiment with Malme-3M. Also, the GI50 in the experiment on UACC-257 was 49.9 µM (inactive); in the experiment on NCI-H23, 19.8 µM (inactive); with OVCAR-5, > 100 µM (inactive); in the experiment on LOX IMVI, 19 µM (inactive); in the experiment with OVCAR-4 it was 32.1 µM (inactive); in the experiment with HCC 2998, > 100 µM (inactive). The GI50 in the experiment on HCT-116 is 31.6 µM (inactive); in the experiment with HL-60 it was 22.3 µM (inactive); in the experiment on SNB-19, > 31.6 µM (inactive); in the experiment on U-251, > 60.8 µM (inactive); in the experiment with NCI-H226, > 100 µM (inactive).
`CCN(CC)C(=O)CCn1ccc(=O)[nH]c1=O`: the GI50 in the experiment with SW-620, in the experiment on SF-268, in the experiment on LXFL 529, with M14, with SK-MEL-5 and in the experiment on DMS-273 was > 100 µM (inactive) throughout. In addition, the GI50 with Malme-3M, in the experiment with NCI-H23, in the experiment on OVCAR-5, in the experiment with LOX IMVI, in the experiment with OVCAR-4 and with HCT-116 was > 100 µM (inactive) in each case. Besides, the GI50 in the experiment on HL-60, in the experiment with SNB-19, with U-251 and with NCI-H226 was > 100 µM (inactive) throughout.
Take `O=C1C(c2ccccc2)=[N+]([O-])c2ccc(Cl)cc21`: the GI50 with SW-620 is 49.2 µM (inactive); in the experiment on SF-268 it was 22.4 µM (inactive); with LXFL 529, 13.6 µM (inactive); in the experiment on M14 it was 27.8 µM (inactive); in the experiment with SK-MEL-5, 17.3 µM (inactive); with Malme-3M it was 26.2 µM (inactive). The GI50 with UACC-257 was 19.3 µM (inactive); in the experiment on NCI-H23, 31.6 µM (inactive); in the experiment on OVCAR-5, 35.2 µM (inactive); in the experiment on LOX IMVI, 18.4 µM (inactive); in the experiment with HCT-116 it was 15.8 µM (inactive); with HL-60, 10.6 µM (inactive). Besides, the GI50 in the experiment on HOP-92 is 0.0256 µM (active); in the experiment with SNB-19, 34.5 µM (inactive); in the experiment with U-251 it was 25.9 µM (inactive); in the experiment on NCI-H226, 14.7 µM (inactive).
`NCCSc1cc(O)c2c(c1N)C(=O)c1ccccc1C2=O`: the GI50 with SW-620 is 33.1 µM (inactive); with SF-268, 55.8 µM (inactive); with LXFL 529, 38.2 µM (inactive); in the experiment with M14, 74.3 µM (inactive); in the experiment on SK-MEL-5 it was 12.9 µM (inactive); in the experiment on Malme-3M, 26 µM (inactive). Moreover, the GI50 in the experiment with NCI-H23 is > 100 µM (inactive); in the experiment on OVCAR-5 it was > 100 µM (inactive); in the experiment on OVCAR-4, 99.3 µM (inactive); in the experiment on HCC 2998 it was > 100 µM (inactive); in the experiment on HCT-116, 34 µM (inactive); in the experiment on HL-60 it was 20.8 µM (inactive). In addition, the GI50 with HOP-92 was 60.5 µM (inactive); with SNB-19 it was 34 µM (inactive); in the experiment with U-251, 58.7 µM (inactive).
`COc1ccc([C@H]2CC3C(=O)N(c4ccc(OC)cc4)C(=O)C3c3[nH]c4ccccc4c32)cc1` (some centres not stated): the GI50 is 45.6 µM (inactive) with SW-620; 82 µM (inactive) in the experiment on SF-268; 55.1 µM (inactive) with LXFL 529; 66.5 µM (inactive) with M14; 46.3 µM (inactive) in the experiment on SK-MEL-5; 14.8 µM (inactive) with DMS-273. Moreover, the GI50 with Malme-3M was 36.1 µM (inactive); in the experiment with UACC-257, > 100 µM (inactive); in the experiment with NCI-H23 it was 54 µM (inactive); in the experiment on OVCAR-5, > 100 µM (inactive); in the experiment with LOX IMVI, > 100 µM (inactive); with OVCAR-4 it was > 100 µM (inactive). Besides, the GI50 in the experiment with HCC 2998 was > 100 µM (inactive); with HCT-116, 9.31 µM (inactive); in the experiment on HOP-92 it was 24 µM (inactive); in the experiment on SNB-19 it was 32.1 µM (inactive); with U-251, 59.6 µM (inactive); in the experiment with NCI-H226 it was 91 µM (inactive).
With `Cc1ccc2nc(NC(=O)C(=O)C(C#N)c3nc4ccccc4s3)sc2c1` (configuration not stated), the GI50 in the experiment on SW-620 was 55.1 µM (inactive); in the experiment with SF-268, 51.6 µM (inactive); in the experiment on LXFL 529, 28.4 µM (inactive); in the experiment on M14, 33.8 µM (inactive); with SK-MEL-5 it was 19.4 µM (inactive); in the experiment with DMS-273 it was 28.4 µM (inactive). Moreover, the GI50 with Malme-3M was 43.7 µM (inactive); in the experiment with UACC-257 it was 28 µM (inactive); with NCI-H23, 35 µM (inactive); in the experiment with OVCAR-5, 57.5 µM (inactive); with LOX IMVI it was 37.2 µM (inactive); with OVCAR-4 it was 39 µM (inactive). Besides, the GI50 in the experiment on HCC 2998 is 79.8 µM (inactive); with HCT-116, 38.4 µM (inactive); with HOP-92 it was 26.4 µM (inactive); with SNB-19, 31.8 µM (inactive); in the experiment with U-251, 33.7 µM (inactive); in the experiment on NCI-H226 it was 25.1 µM (inactive).
As to `CC1(C)Oc2ccccc2N2O[C@@H]3C(=O)N(c4ccccc4)C(=O)[C@@H]3C21c1ccccc1` (some centres not stated), the GI50 is 34.4 µM (inactive) with SW-620; 33.9 µM (inactive) in the experiment on SF-268; 56.1 µM (inactive) in the experiment on LXFL 529; 20.7 µM (inactive) in the experiment on M14; 23 µM (inactive) with SK-MEL-5; 21.8 µM (inactive) in the experiment on Malme-3M. Further, the GI50 is 34 µM (inactive) in the experiment on UACC-257; 97.7 µM (inactive) in the experiment with NCI-H23; 78.3 µM (inactive) with OVCAR-5; 17.9 µM (inactive) with OVCAR-4; > 100 µM (inactive) in the experiment on HCC 2998; 20.8 µM (inactive) in the experiment on HCT-116. Further, the GI50 is > 10 µM (inactive) in the experiment with HL-60, 19.7 µM (inactive) in the experiment with SNB-19, 25 µM (inactive) with U-251 and 55.3 µM (inactive) in the experiment with NCI-H226.
